{"source": "patent US20040248919A1", "about": "“Fluorinated trienes and their use as rxr modulators” (priority 2001, published 2004)", "key": {"rodent models of NIDDM": {"tested_on": "rodent models of NIDDM", "experiment": "Rodent models of NIDDM", "format": "in vivo", "source_text": "Rodents that are genetically defective in the leptin pathway are commonly used as animal models of non-insulin dependant diabetes mellitus (NIDDM). db/db mice and ZDF rats develop frank diabetes that progresses to include β-cell failure and the accompanying precipitous drop in plasma insulin levels. […] All three rodent models were used to examine the efficacy of oral dosing with compounds of the invention on diabetes, insulin sensitivity, food consumption and body weight gain.\nMice (obtained from Jackson Laboratory), ZDF rats (obtained from Genetic Models Inc.) and fa/fa rats (obtained from either Charles River, or Harlan) are maintained on 12-hour light/dark cycle. Mice (age 28-42 days) are caged in groups of 5-6. Rats (age 7 weeks) are housed individually. All animals are allowed ad libitum access to water and food (Purina 5015 for mice and 5008 for rats). Compounds are administered at the specified doses by oral gavage on the morning of each day of any experiment. Blood samples are obtained 3 hours after dosing from fed animals under anesthesia and collected into heparinized capillary tubes from the tail vein."}, "[1]": {"tested_on": "transgenic mice carrying the human apo A-I gene", "experiment": "Transgenic mice carrying the human apo A-I gene", "format": "in vivo", "details": "transgenic mouse model", "source_text": "Mice transgenic for the human apolipoprotein A-I gene (obtained from Jackson Laboratory) are used to evaluate PPARγ mediated effects on high density lipoprotein (HDL) cholesterol. The mice are handled as described above for db/db mice, except that they are fed Purina 5001."}, "db/db mice": {"tested_on": "db/db mice", "experiment": "db/db mice, oral dosing", "format": "in vivo, mouse", "details": "7 week old db/db mice, 300 mg/kg by daily oral gavage"}}, "data": [{"molecule": "Cc1cc2c(cc1C1(c3ccc(C(=O)O)cn3)CC1)C(C)(C)CCC2(C)C", "note": "[LG100268, 6-[1-(3,5,5,8,8-pentamethyl-5,6,7,8-tetrahydronaphthalen-2-yl)cyclopropyl]nicotinic acid]", "values": [{"measurement": "Blood glucose levels", "setting": "rodent models of NIDDM", "result": "lower blood glucose levels"}, {"measurement": "Thyroid hormone axis", "setting": "rodent models of NIDDM", "result": "suppress the thyroid hormone axis"}, {"measurement": "Triglycerides", "setting": "rodent models of NIDDM", "result": "raise triglycerides"}, {"measurement": "Triglycerides", "setting": "[1]", "result": "raises triglycerides"}]}, {"molecule": "CN(C)C(=N)N=C(N)N", "note": "[metformin]", "values": [{"measurement": "Plasma glucose", "setting": "db/db mice", "result": "lowers plasma glucose"}]}]}
